biological target: C-C chemokine receptor type 5 (Macaca fascicularis); test: Antagonistic activity against monkey C-C chemokine receptor type 5.

Row | Structure (SMILES) | IC50 [µM]
1 | Cc1cc[n+]([O-])c(C)c1C(=O)N1CCC(N2CCC(N(c3ccccc3)c3ccccc3)CC2)CC1 [(2,4-Dimethyl-1-oxy-pyridin-3-yl)-(4-diphenylamino-[1,4']bipiperidinyl-1'-yl)-methanone] | 0.117
2 | Cc1cccc(C)c1C(=O)N1CCC(C)(N2CCC(Nc3ccc(C(F)(F)F)cc3)CC2)CC1 [(2,6-Dimethyl-phenyl)-[4'-methyl-4-(4-trifluoromethyl-phenylamino)-[1,4']bipiperidinyl-1'-yl]-methanone] | 0.0011
3 | Cc1cccc(C)c1C(=O)N1CCC(C)(N2CCC(Nc3ccc4ccn(C)c4c3)CC2)CC1 [(2,6-Dimethyl-phenyl)-[4'-methyl-4-(1-methyl-1H-indol-6-ylamino)-[1,4']bipiperidinyl-1'-yl]-methanone] | 0.043
4 | Cc1cccc(C)c1C(=O)N1CCC(C)(N2CCC(N(Cc3ccccc3)c3ccc(Br)cc3)CC2)CC1 [{4-[Benzyl-(4-bromo-phenyl)-amino]-4'-methyl-[1,4']bipiperidinyl-1'-yl}-(2,6-dimethyl-phenyl)-methanone] | 0.0062
5 | Cc1cccc(C)c1C(=O)N1CCC(C)(N2CCC(Nc3cccc4ccn(C)c34)CC2)CC1 [(2,6-Dimethyl-phenyl)-[4'-methyl-4-(1-methyl-1H-indol-7-ylamino)-[1,4']bipiperidinyl-1'-yl]-methanone] | 0.147
6 | Cc1ccccc1C(=O)N1CCC(C)(N2CCC(N(c3ccccc3)c3ccccc3)CC2)CC1 [(4-Diphenylamino-4'-methyl-[1,4']bipiperidinyl-1'-yl)-o-tolyl-methanone] | 0.0286
